Assay results from patent US9006205B2, “Antisense oligonucleotides against neutral sphingomyelinase and neutral sphingomyelinase inhibitor GW4869 for degenerative neurological disorders” (Rush University Medical Center, priority 2011, dated 2015).

How the values were obtained:
Type in all cases: cell-based
[1] = molecular target: T1, N-SMase (Homo sapiens, UniProt Q9NY59); assay: Assay of N-SMase activity in primary human neurons; conditions: activated astroglia-insulted human neurons, chemical inhibitors
T1 construct: endogenous in cells; host or cells: primary human neurons
T1 sequence (Q9NY59 1-655): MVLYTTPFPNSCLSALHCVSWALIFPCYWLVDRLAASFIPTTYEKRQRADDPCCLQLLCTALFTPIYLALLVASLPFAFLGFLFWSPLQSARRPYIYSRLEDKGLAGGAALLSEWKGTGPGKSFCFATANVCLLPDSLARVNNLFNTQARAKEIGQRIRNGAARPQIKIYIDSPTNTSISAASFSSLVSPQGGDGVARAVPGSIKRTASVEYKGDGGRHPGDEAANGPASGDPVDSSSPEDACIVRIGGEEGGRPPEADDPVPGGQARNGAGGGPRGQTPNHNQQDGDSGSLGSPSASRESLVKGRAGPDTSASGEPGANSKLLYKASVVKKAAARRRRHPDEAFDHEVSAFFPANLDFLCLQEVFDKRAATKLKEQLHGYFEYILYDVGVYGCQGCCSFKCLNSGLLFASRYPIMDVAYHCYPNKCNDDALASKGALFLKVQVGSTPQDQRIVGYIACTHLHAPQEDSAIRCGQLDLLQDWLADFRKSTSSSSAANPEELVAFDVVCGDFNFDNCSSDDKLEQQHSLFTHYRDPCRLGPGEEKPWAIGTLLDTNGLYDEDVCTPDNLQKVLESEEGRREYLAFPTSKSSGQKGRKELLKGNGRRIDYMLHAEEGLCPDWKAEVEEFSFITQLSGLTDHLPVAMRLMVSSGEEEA
Procedure: Activities of SMase(s) were assayed as described by. Briefly, after treatment, the cells were washed with PBS, harvested in PBS, divided into two halves, and centrifuged. The fraction for N-SMase was resuspended in buffer A (100 mM Tris-HCl, pH 7.4, 0.1% Triton X-100, 1 mM EDTA, and protease inhibitors), and the cell suspension was sonicated and centrifuged at 500×g at 4° C. for 5 min. The supernatant was used as the enzyme source for N-SMase. The reaction mixture contained enzyme preparation in buffer A containing 5 nmol of [^14C] sphingomyelin, 5 nmol of phosphatidylserine, 5 mM dithiothreitol, and 5 mM MgC¾ in a final volume of 100 μl. Similarly, the fraction for A-SMase was resuspended in buffer B (100 mM sodium acetate, pH 5.0, 0.1% Triton X-100, and protease inhibitors). The cell suspension was sonicated and centrifuged. The supernatant was used as the source of A-SMase. The activity of A-SMase was measured in a 100-μl reaction mixture consisting of the enzyme preparation in buffer B and 5 nmol of [^14C] sphingomyelin. The enzyme reaction was initiated by the addition of 50 μl of substrate and stopped by the addition of 1.5 ml of chloroform:methanol (2:1, v/v) and 0.2 ml of water. After vortexing and phase separation, the aqueous phase was removed for counting.
In FIGS. 3A-3E, primary human astrocytes seeded in inserts were stimulated by the combination of Aβ and IL-Iβ as described above. After 24 h, media were removed and inserts were washed and placed on neurons that were pretreated with PTIO for 30 min. In FIG. 3A, after 1 h, activity of N-SMase was measured in total cell extracts of neurons as described above. After 18 h, neuronal viability was examined by the metabolism of MTT (FIG. 3B) and the release of LDH (FIG. 3C). Values obtained from the control group served as 100%, and data obtained in other groups were calculated as percent of control accordingly. Results are mean+S.D. of three different experiments. ^ap<0.001 vs control; ^bp<0.001 vs activated astrocytes. Primary human neurons were treated with 25 μM DETA-NONOate (a NO donor) and at different time points of treatment, activities of N-SMase (FIG. 3D) and A-SMase (FIG. 3E) were monitored. ^ap<0.001 vs control (0 h).

[2] = molecular target: T2, A-SMase (Homo sapiens, UniProt P17405); assay: Assay of A-SMase activity in primary human neurons; conditions: activated astroglia-insulted human neurons, chemical inhibitors
T2 construct: The supernatant was used as the source of A-SMase; endogenous in cells; host or cells: primary human neurons
T2 sequence (P17405 47-631): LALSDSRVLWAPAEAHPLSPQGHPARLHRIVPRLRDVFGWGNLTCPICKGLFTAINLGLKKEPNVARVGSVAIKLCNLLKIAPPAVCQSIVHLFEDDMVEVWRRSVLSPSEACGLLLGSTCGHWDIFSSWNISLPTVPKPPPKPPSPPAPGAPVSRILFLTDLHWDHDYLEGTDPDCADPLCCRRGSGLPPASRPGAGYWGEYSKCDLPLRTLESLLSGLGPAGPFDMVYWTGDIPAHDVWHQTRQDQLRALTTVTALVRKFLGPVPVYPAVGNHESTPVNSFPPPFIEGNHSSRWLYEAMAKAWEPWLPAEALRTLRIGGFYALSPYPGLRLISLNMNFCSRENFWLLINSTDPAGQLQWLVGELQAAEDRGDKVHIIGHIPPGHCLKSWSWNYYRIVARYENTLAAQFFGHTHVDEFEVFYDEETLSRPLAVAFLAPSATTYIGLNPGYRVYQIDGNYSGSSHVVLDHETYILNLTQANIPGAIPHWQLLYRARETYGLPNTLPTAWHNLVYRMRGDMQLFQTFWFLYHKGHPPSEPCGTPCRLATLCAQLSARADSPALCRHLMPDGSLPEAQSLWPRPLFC
Procedure: Activities of SMase(s) were assayed as described by. Briefly, after treatment, the cells were washed with PBS, harvested in PBS, divided into two halves, and centrifuged. The fraction for N-SMase was resuspended in buffer A (100 mM Tris-HCl, pH 7.4, 0.1% Triton X-100, 1 mM EDTA, and protease inhibitors), and the cell suspension was sonicated and centrifuged at 500×g at 4° C. for 5 min. The supernatant was used as the enzyme source for N-SMase. The reaction mixture contained enzyme preparation in buffer A containing 5 nmol of [^14C] sphingomyelin, 5 nmol of phosphatidylserine, 5 mM dithiothreitol, and 5 mM MgC¾ in a final volume of 100 μl. […] The activity of A-SMase was measured in a 100-μl reaction mixture consisting of the enzyme preparation in buffer B and 5 nmol of [^14C] sphingomyelin. […]
In FIGS. 3A-3E, primary human astrocytes seeded in inserts were stimulated by the combination of Aβ and IL-Iβ as described above. […] In FIG. 3A, after 1 h, activity of N-SMase was measured in total cell extracts of neurons as described above. […] Values obtained from the control group served as 100%, and data obtained in other groups were calculated as percent of control accordingly. […] Primary human neurons were treated with 25 μM DETA-NONOate (a NO donor) and at different time points of treatment, activities of N-SMase (FIG. 3D) and A-SMase (FIG. 3E) were monitored. ^ap<0.001 vs control (0 h).

[3] = test system: primary human astroglia; assay: NO synthesis (nitrite, Griess reagent) in primary human astroglia; conditions: astroglia preincubated 30 min with different concentrations of chemical inhibitor; nitrite after 24 h
Procedure: Synthesis of NO was determined by assay of culture supernatants for nitrite, a stable reaction product of NO with molecular oxygen, using Griess reagent as described.
After 24 h of stimulation, the concentration of nitrite was measured in supernatants (FIG. 4A) by Griess reagent. […] Cells were treated with ASO/ScO for 40 h followed by stimulation with the combination of fibrillar Aβ and IL-Iβ as above. After 6 h, the expression of iNOS mRNA was analyzed by both semi-quantitative RT-PCR (C) and quantitative real-time PCR (FIG. 4D). The expression of TNF-a, IL-6 and IL-Iβ mRNAs were analyzed by semi-quantitative RT-PCR (FIG. 4E). Results are mean±SD of three different experiments. ^ap<0.001 vs control; ^bp<0.001 vs (Aβ+IL-Iβ).

CN(C)CCCN1c2ccccc2CCc2ccccc21 [imipramine]
activity of N-SMase [1]: but not N-SMase
activity of A-SMase [2]: inhibited
(Aβ+IL-1β)-induced production of NO [3]: showed no effect
